Reference: US20060247184A1, “Treatment and prophylaxis of diseases and infections pigs and poultry” (Eco Animal Health Ltd., priority 2000, published 2006)
Values after ≈ are worked out from the molar mass of the structure shown. Read-outs that look alike come from different tables or passages of the source.

Experiments:
[1] = tested on: Brachyspira hyodysenteriae; test: Sensitivity (MIC) for AIVLOSIN and chlortetracycline, alone and in combination; format: cell-based; details: for MIC: Brachyspira hyodysenteriae, alone; for MIC of each for combination of CTC + AIV: in combination CTC + AIV
From the text: 4. Sensitivity of Bacteria for AIVLOSIN and Tetracyclines, Alone and in Combination.
Sensitivity is expressed as the lowest concentration of an antibiotic (in mcg/ml) that inhibits the growth of the test bacteria (MIC=Minimum Inhibitory Concentration).
Brachyspira Hyodysenteriae

Mycoplasma Synoviae = test: Sensitivity (MIC) for AIVLOSIN and tetracyclines, alone and in combination; format: cell-based; details: for MIC: Mycoplasmopsis synoviae, alone; for MIC of each for combination CTC + AIV: in combination CTC + AIV; for MIC of each for combination OTC + AIV: in combination OTC + AIV
[2] = tested on: Brachyspira hyodysenteriae; test: Swine dysentery, treatment of clinical outbreak; format: in vivo, pigs
[3] = tested on: Brachyspira hyodysenteriae; test: Swine dysentery animal disease model, prevention of clinical disease; format: in vivo, pigs
[4] = tested on: Brachyspira hyodysenteriae; test: In vitro MIC against Brachyspira hyodysenteriae strains (Table 2); format: cell-based
Clostridium perfringens = format: cell-based

Molecule `CN(C)[C@@H]1C(O)=C(C(N)=O)C(=O)[C@@]2(O)C(O)=C3C(=O)c4c(O)ccc(Cl)c4[C@@](C)(O)[C@H]3C[C@@H]12` [CTC, chlortetracycline] has an MIC ([1]; strain AF6) of 0.5 µg/mL, an MIC ([1]; strain P265-9-97) of 16 µg/mL and an MIC ([1]; strain P268-9-97) of 16 µg/mL. For the same molecule, the MIC ([1]; strain P578-6-97) was 16 µg/mL, the “MIC of each for combination of CTC + AIV” value ([1]; strain AF6) was 0.125 µg/mL and the “MIC of each for combination of CTC + AIV” value ([1]; strain P265-9-97) was 4.0 µg/mL. The “MIC of each for combination of CTC + AIV” value ([1]; strain P268-9-97) was 8.0 µg/mL, the “MIC of each for combination of CTC + AIV” value ([1]; strain P578-6-97) was 8.0 µg/mL and the MIC (Mycoplasma Synoviae; strain 173) was 0.78 µg/mL. It also gave an MIC (Mycoplasma Synoviae; strain 185) of 0.78 µg/mL, an MIC (Mycoplasma Synoviae; strain 211) of 0.39 µg/mL and an MIC (Mycoplasma Synoviae; strain 312) of 3.12 µg/mL. For the same molecule, the MIC (Mycoplasma Synoviae; strain wvu 1835) was 0.39 µg/mL, the “MIC of each for combination CTC + AIV” value (Mycoplasma Synoviae; strain 173) was 0.1 µg/mL and the “MIC of each for combination CTC + AIV” value (Mycoplasma Synoviae; strain 185) was 0.1 µg/mL. The “MIC of each for combination CTC + AIV” value (Mycoplasma Synoviae; strain 211) was 0.1 µg/mL, the “MIC of each for combination CTC + AIV” value (Mycoplasma Synoviae; strain 312) was 0.1 µg/mL and the “MIC of each for combination CTC + AIV” value (Mycoplasma Synoviae; strain wvu 1835) was 0.1 µg/mL.
`CN(C)[C@@H]1C(O)=C(C(N)=O)C(=O)[C@@]2(O)C(O)=C3C(=O)c4c(O)cccc4[C@@](C)(O)[C@H]3[C@H](O)[C@@H]12` [OTC, oxytetracycline] gave an MIC (Mycoplasma Synoviae; strain 173) of 0.39 µg/mL, an MIC (Mycoplasma Synoviae; strain 185) of 0.2 µg/mL and an MIC (Mycoplasma Synoviae; strain 211) of 0.39 µg/mL. For the same molecule, the MIC (Mycoplasma Synoviae; strain 312) was 0.78 µg/mL, the MIC (Mycoplasma Synoviae; strain wvu 1835) was 0.39 µg/mL and the “MIC of each for combination OTC + AIV” value (Mycoplasma Synoviae; strain 173) was 0.1 µg/mL. The “MIC of each for combination OTC + AIV” value (Mycoplasma Synoviae; strain 185) was 0.1 µg/mL, the “MIC of each for combination OTC + AIV” value (Mycoplasma Synoviae; strain 211) was 0.1 µg/mL and the “MIC of each for combination OTC + AIV” value (Mycoplasma Synoviae; strain 312) was 0.1 µg/mL. The “MIC of each for combination OTC + AIV” value (Mycoplasma Synoviae; strain wvu 1835) was 0.1 µg/mL.
`C=C[C@]1(C)C[C@@H](OC(=O)CSCCN(CC)CC)[C@]2(C)[C@H](C)CC[C@]3(CCC(=O)[C@H]32)[C@@H](C)[C@@H]1O` [Tiamulin, tiamulin] was tested, and the “Mean days to clear B.Hyo” value ([2]; 100 ppm 10 days) was 5.8 days, the “Mean days to recovery” value ([2]; 100 ppm 10 days) was 4.4 days and the “Mean score at start” value ([2]; 100 ppm 10 days, clinical scoring 0 = normal, 6 = moribund, baseline) was 4.0. The “Period for which the drug needs to be provided to prevent an outbreak” value ([3]; artificially infected pigs) was “whole period in which the pigs are at risk”.
For `CC[C@H]1OC(=O)C[C@@H](O)[C@H](C)[C@@H](O[C@@H]2O[C@H](C)[C@@H](O[C@H]3C[C@@](C)(O)[C@@H](O)[C@H](C)O3)[C@H](N(C)C)[C@H]2O)[C@@H](CC=O)C[C@@H](C)C(=O)/C=C/C(C)=C/[C@@H]1CO[C@@H]1O[C@H](C)[C@@H](O)[C@@H](OC)[C@H]1OC` [Tylosin, tylosin], the “Mean days to clear B.Hyo” value ([2]; 100 ppm 21 days) was 3.0 days, the “Mean days to recovery” value ([2]; 100 ppm 21 days) was 2.1 days and the “Mean score at start” value ([2]; 100 ppm 21 days) was 3.7. For the same molecule, the MIC ([4]; strain AF 6/80) was 6.25 µg/mL (≈ 6.82 µM), the MIC ([4]; strain PI8A) was over 200 µg/mL and the MIC ([4]; strain PO268-07.98) was over 200 µg/mL. For the same molecule, the “Period for which the drug needs to be provided to prevent an outbreak” value ([3]; pig, in vivo) was at least 21 days.
Work on zinc bacitracin yielded an MIC (Clostridium perfringens; strain 378) of 3.125 µg/mL, an MIC (Clostridium perfringens; strain 389) of 1.56 µg/mL and an MIC (Clostridium perfringens; strain 392) of 1.56 µg/mL. It also gave an MIC (Clostridium perfringens; strain 395) of 3.125 µg/mL, an MIC (Clostridium perfringens; strain 410) of 3.125 µg/mL and an MIC (Clostridium perfringens; strain 412) of 6.25 µg/mL. The MIC (Clostridium perfringens; strain 413) was 6.25 µg/mL.
